Series [1] relates to ZIKV Paraiba/2015. The series is described as follows: Microplaque reduction assay, ZIKV Paraiba/2015 in A549 cells, post-infection treatment. The format is cell-based. Particulars: for IC50: Zika virus, A549, 36 h; for selectivity ratio at 36 h: human, A549 cells infected with ZIKV Paraiba/2015, Paraiba/2015, A549 cells, post-treatment, read-out: SI (selective index, CC50/IC50). (In general: In a plaque reduction assay, fewer plaques than in the control indicate reduced infectivity or spread.)

Series [2] is described as follows: Cell viability assay (CellTiter 96), Vero cells. The format is cell-based, African green monkey. Particulars: African green monkey; for CC50 at 36 h: 36 h post-treatment; for CC50 at 72 h: 72 h post-treatment. As to the method:
(§1) Cell viability in Vero and A549 cells was measured using the CellTiter 96 Non-Radioactive Cell Proliferation assay (Promega) following the manufacturer’s instructions. […] Plates were incubated at 37°C in a 5% CO2 atmosphere for 36 or 72 h. Samples were treated with 15 μl of Dye Solution and incubated at 37°C in a 5% CO2 atmosphere for 4 h. Next, cells were treated with 100 μl of Solubilization Solution/Stop Mix and absorbance at 570 nm was measured using a Vmax kinetic microplate reader (Molecular Devices, Waltham, MA, United States). Viability of compound-treated cells was calculated as a percentage relative to values obtained with DMSO-treated cells. Non-linear regression curves and the median cytotoxic concentration (CC50) were calculated using GraphPad Prism software version 8.0.

Series [3] deals with ZIKV Paraiba/2015. Briefly: Microplaque reduction assay, ZIKV Paraiba/2015 in Vero cells, post-infection treatment. Particulars: for selectivity ratio at 36 h: African green monkey, Vero cells infected with ZIKV Paraiba/2015, Paraiba/2015, Vero cells, read-out: SI (selective index, CC50/IC50); for IC50: Zika virus, Vero. In kind it is cell-based.
The nature of series [4]: Cell viability assay (CellTiter 96), A549 cells. The format is cell-based, human. To be noted: human; for CC50 at 36 h: 36 h post-treatment; for CC50 at 72 h: 72 h post-treatment. As to the method: as §1
The test system of series [5] is ZIKV Paraiba/2015. Briefly: Virus growth kinetics, ZIKV Paraiba/2015 in A549 cells. The format is cell-based, Zika virus. Here is the method:
(§2) At 12, 24, 48, and 72 h post-infection (h p.i.), tissue culture supernatants were collected and titrated on Vero cells by immunostaining as described previously ([Marquez-Jurado et al., 2018]).
(§3) Dotted line indicates the limit of detection (20 FFU/ml).

The next series has as its system ZIKV Uganda/1947. Briefly: Microplaque reduction assay, ZIKV Uganda/1947 in Vero cells.
The subject of another series is Vaccinia virus. Particulars: 30 mg/kg/day, ref Smee et al., 2010; cited from earlier work.
The subject of the next series is ZIKV Nigeria/1968. Briefly: Microplaque reduction assay, ZIKV Nigeria/1968 in Vero cells.
In series [6] the test system is ZIKV-induced CPE in A549 cells. Briefly: ZIKV-induced cytopathic effect (light microscope), A549 cells. To be noted: MOI 0.1, 48 h p.i., 25 μM and more clearly 250 μM. The format is cell-based, human. (Cytopathic effects are the visible damage that an infection or toxin causes in cultured cells.)
For the next series, the system named is ZIKV Puerto Rico/2015. Briefly: Microplaque reduction assay, ZIKV Puerto Rico/2015 in Vero cells.
The test system of series [7] is ZIKV French Polynesia/2013. The series is described as follows: Microplaque reduction assay, ZIKV French Polynesia/2013 in Vero cells.
Series [8] deals with ZIKV Paraiba/2015. Briefly: Virus growth kinetics, ZIKV Paraiba/2015 in Vero cells. The format is cell-based, Zika virus. Here is the method: as §2, §3
For series [9], the system named is ZIKV-induced CPE in Vero cells. Briefly: ZIKV-induced cytopathic effect (light microscope), Vero cells. In kind it is cell-based, African green monkey. Particulars: MOI 0.1, 48 h p.i., 25 μM and more clearly 250 μM.
Another series concerns Vero cells. The series is described as follows: Cell viability assay (CellTiter 96), Vero cells. The format is cell-based, African green monkey. To be noted: 36 or 72 h post-treatment, up to highest concentration tested (1,000 μM). As to the method:
as §1

Series [10] deals with ZIKV Paraiba/2015. The series is described as follows: Microplaque reduction assay, pre-treatment of Vero cells before ZIKV Paraiba/2015 infection. The format is cell-based. To be noted: for IC50: Zika virus, Vero, fixed 36 h p.i.
The subject of series [11] is caspase 3 and 7 activities. The series is described as follows: Apoptosis assay (Caspase-Glo 3/7), ZIKV-infected A549 cells. Particulars: 250 μM.
For another series, the system named is A549 cells. Briefly: Cell viability assay (CellTiter 96), A549 cells. In kind it is cell-based, human. Particulars: 36 or 72 h post-treatment, up to highest concentration tested (1,000 μM). As to the method: as §1
Series [12] has as its system caspase 3 and 7 activities. Briefly: Apoptosis assay (Caspase-Glo 3/7), ZIKV-infected Vero cells. Particulars: 250 μM.
The test system of series [13] is ZIKV. Also on record: method as in Yang et al., 2018. Particulars: SNB-19 cells; ref Yang et al., 2018; cited from earlier work.
Series [14] deals with ZIKV. Further details: method as in Yang et al., 2018. Particulars: ENV+ cells; ref Yang et al., 2018; cited from earlier work.
For series [15], the system named is ZIKV. Also on record: method as in Kuivanen et al., 2017. Particulars: human retinal pigment epithelial (RPE) cells; ref Kuivanen et al., 2017; cited from earlier work.
Series [16] relates to ZIKV. Also on record: method as in Bullard-Feibelman et al., 2017. To be noted: Huh-7 cells; ref Bullard-Feibelman et al., 2017; cited from earlier work.
Series [17] has as its system ZIKV. Further details: method as in Bullard-Feibelman et al., 2017. To be noted: Jar cells; ref Bullard-Feibelman et al., 2017; cited from earlier work.
Where [18] appears, read: reading time not stated at the place (assay read at 36 and 72 h).

Like-named read-outs stand apart in the source and are kept apart here.

These results are taken from paper PMC6473159, “Potent Inhibition of Zika Virus Replication by Aurintricarboxylic Acid” (Frontiers in Microbiology, 2019).

Take `CCOC(=O)c1c(CSc2ccccc2)n(C)c2cc(Br)c(O)c(CN(C)C)c12` [ARB, Arbidol]: the results for the IC50 in the series on ZIKV Paraiba/2015 [1] and with ZIKV Paraiba/2015 [3] (36 h) were 51.9 ± 1.08 µM and 18.2 ± 1.16 µM, respectively. The selectivity ratio at 36 h in the series with ZIKV Paraiba/2015 [1] was 2.21; with ZIKV Paraiba/2015 [3] (post-treatment, 36 h) it was 4.11. The CC50 at 36 h in [2] is 74.7 ± 1.09 µM; in series [4], 114.6 ± 1.08 µM. For the same compound, the CC50 at 72 h in series [2] was found to be 59.4 ± 1.1 µM; in series [4] it was 91 ± 1.08 µM.
On to `O=C(O)C1=CC(=C(c2ccc(O)c(C(=O)O)c2)c2ccc(O)c(C(=O)O)c2)C=CC1=O` [ATA, aurintricarboxylic acid], for which the “ZIKV replication (viral titer in supernatant)” value in the series on ZIKV Paraiba/2015 [5] (MOI 0.1, 25 μM) was “partial viral inhibition”; in the series on ZIKV Paraiba/2015 [5] (MOI 0.1, 250 μM), “completely inhibited”; in the series with ZIKV Paraiba/2015 [8] (MOI 0.1, 2.5 μM), “partial viral inhibition”; in the series with ZIKV Paraiba/2015 [8] (MOI 0.1, 250 μM) it was “completely inhibited”. Besides, the selectivity ratio at 48 h is > 66.3 in the series on ZIKV Uganda/1947 (African green monkey, Vero cells infected with ZIKV Uganda/1947); > 57 in the series with ZIKV Puerto Rico/2015 (African green monkey, Vero cells infected with ZIKV Puerto Rico/2015); > 76.8 in series [7] (African green monkey, Vero cells infected with ZIKV French Polynesia/2013); > 79.4 in the series on ZIKV Paraiba/2015 [10] (African green monkey, pre-treatment 48 h, read-out: SI (selective index, CC50/IC50)). In addition, the IC50 stood at 15.1 ± 1.19 µM with ZIKV Uganda/1947 (Zika virus, Vero, 48 h); 16 ± 1.02 µM with ZIKV Nigeria/1968 (Zika virus, Vero, 60 h); 33.3 ± 1.13 µM with ZIKV Paraiba/2015 [1]; 17.6 ± 1.16 µM with ZIKV Puerto Rico/2015 (Zika virus, Vero, 48 h); 13.9 ± 1.01 µM in series [7] (Zika virus, Vero, 48 h); 14.3 ± 1.06 µM in the series with ZIKV Paraiba/2015 [10] (pre-treatment 12 h before infection). For the same compound, the IC50 came out at 13.2 ± 1.05 µM with ZIKV Paraiba/2015 [10] (pre-treatment 24 h before infection), 12.6 ± 1.02 µM in the series with ZIKV Paraiba/2015 [10] (pre-treatment 48 h before infection), 10.5 ± 1.05 µM in the series with ZIKV Paraiba/2015 [10] (pre-treatment 72 h before infection) and 13.9 ± 1.09 µM in the series with ZIKV Paraiba/2015 [3] (36 h). The “protection of mice from a lethal challenge” value in the series with Vaccinia virus is “did not protect”. The selectivity ratio at 60 h with ZIKV Nigeria/1968 (African green monkey, Vero cells infected with ZIKV Nigeria/1968) was > 62.6. Moreover, the selectivity ratio at 36 h in the series with ZIKV Paraiba/2015 [1] amounted to 26.3; in the series with ZIKV Paraiba/2015 [3] (post-treatment, 36 h) it was 72.1. In addition, the “ZIKV-induced CPE” value in [6] and in [9] was “able to prevent ZIKV-induced CPE” in each case. Further, the “toxicity (cell viability)” value in the series on Vero cells and in the series on A549 cells was “did not observe any toxicity” each time. For the same compound, the CC50 at 36 h in [2] and in series [4] was > 1000 µM throughout. For the same compound, the CC50 at 72 h in series [2] and in series [4] was > 1000 µM in each case. For the same compound, the CC50 in [2] (setting [18]) and in series [4] (setting [18]) was > 1000 µM throughout. In addition, the selectivity ratio at 12 h with ZIKV Paraiba/2015 [10] (African green monkey, pre-treatment 12 h, read-out: SI (selective index, CC50/IC50)) was > 69.8. Also, the selectivity ratio at 24 h with ZIKV Paraiba/2015 [10] (African green monkey, pre-treatment 24 h, read-out: SI (selective index, CC50/IC50)) was > 75.9. In addition, the selectivity ratio at 72 h in the series on ZIKV Paraiba/2015 [10] (African green monkey, pre-treatment 72 h, read-out: SI (selective index, CC50/IC50)) is > 95.2. In addition, the “caspase 3 and 7 induction as compared to mock-infected cells” value in series [11] stood at 1.7 fold; in series [12], 0.4 fold. In addition, the “SI (selective index, CC50/IC50)” value in the series on ZIKV Paraiba/2015 [3] (Paraiba/2015, Vero cells, post-treatment, 36 h) is on record as >72.10. The “SI (selective index), range in Vero cells” value with ZIKV Paraiba/2015 [3] (Vero cells, range over all ZIKV strains and pre-/post-treatment settings of this study) is 56.98–95.24.
Consider `CC[C@H]1CN2CCc3cc(OC)c(OC)cc3[C@@H]2C[C@@H]1C[C@H]1NCCc2cc(OC)c(OC)cc21` [emetine], for which the SI in the series on ZIKV [13] is 9.84; in the series with ZIKV [14] it was 2.88.
Take `Nc1ccn([C@@H]2O[C@H](CO)[C@@H](O)C2(F)F)c(=O)n1` [gemcitabine]: in the series with ZIKV [15], the SI is listed as > 1,000.
As for `COC1=CC(c2cc3ccccc3[nH]2)=N/C1=C\c1[nH]c(C)cc1C` [obatoclax], in the series with ZIKV [15], the SI is 65.
As to `C[C@H]1C/C=C/Cc2cccc(O)c2C(=O)O[C@@H](C/C=C/NC(=O)C#Cc2ccccc2)C[C@H]1O` [saliphenylhalamide], the SI in the series with ZIKV [15] was > 200.
As for `CC(C)OC(=O)[C@H](C)N[P@](=O)(OC[C@H]1O[C@@H](n2ccc(=O)[nH]c2=O)[C@](C)(F)[C@@H]1O)Oc1ccccc1` [sofosbuvir], the SI in the series on ZIKV [16] is on record as > 52.63; with ZIKV [17], > 90.9.

Usually IC50 stands for the point on the concentration scale where inhibition reaches its midpoint. By CC50 is commonly meant the concentration that lowers cell viability or growth by half. Lower therefore signals harm at low concentration.
